Data as given in patent US20150025074A1, “METHODS AND COMPOSITIONS FOR TREATING SOLID TUMORS AND OTHER MALIGNANCIES” (priority 2009, published 2015).
Like-named read-outs stand apart in the source and are kept apart here.

Legend:
[1] = tested on: Ptch+/−Hic+/− medulloblastoma allograft; assay: Ptch+/−Hic+/− subcutaneous medulloblastoma allograft model; format: in vivo, Harlan nu/nu mice; conditions: po; for effect on tumor growth / tumor volume: 80 mg/kg qd Compound 1, 10 mg/kg qd Compound A, or combination, FIG. 1
Protocol: Mouse medulloblastoma cells (1.0-5.0×10^6), dissociated directly from tumor fragments originally derived from spontaneously arising medulloblastomas in Ptch+/−Hic+/− mice, were inoculated subcutaneously into the right flank of Harlan nu/nu mice. Treatment was initiated approximately 7-10 days post implantation. […] Tumor volumes (mm3) and body weights (g) were recorded two or three times per week from all groups for analysis. Dose was body weight adjusted at time of dosing. Comparisons between treatment groups was performed using a non-parametric Kruskal-Wallis/Wilcoxon Rank Sum Test.
Tumors were calipered in two dimensions, and the volumes were calculated using the formula: (length×width2)/2, where length is the longer of the two measurements and width is the shorter one. Percent treatment/control (% T/C) values were calculated using the following formula: % T/C=100×ΔTf-i/ΔCf-i if ΔTf-i>0, % T/T0-100×ΔTf-i/T0 if ΔTf-i<0 (regression). A partial responder (PR) was defined as an animal whose tumor […] was less than 50% of the initial tumor volume by the end of the study. An animal with no palpable tumor by the end of study is defined as a complete responder (CR).
Ptch+/− mice develop medulloblastoma spontaneously (Romer, et al., Cancer Cell, Volume 6, Issue 3, pages 229-24, 2004). […] The heterozygous loss of Hic results in an earlier onset and increases the incidence rate of medulloblastomas (Briggs et al., Genes & Dev., 22: pages 770-785 2008). The in vivo efficacy of Compound 1 was evaluated in Ptch+/−Hic+/− mouse medulloblastoma allograft models, derived from corresponding transgenic mice and passaged in vivo, and following long-term continuous dosing. The following experiments were performed to evaluate if mTor inhibitors could be used either alone or in combination to treat resistant tumors or to overcome the development of resistance to Smo antagonists.
Next, a combination of Compound 1 and Compound A was explored in the Ptch+/−Hic+/− medulloblastoma allograft model.

[2] = tested on: medulloblastoma cells derived from sensitive Ptch+/−Hic+/− medulloblastoma tumors; assay: ex-vivo medulloblastoma proliferation assay (48 h, 3H thymidine incorporation), sensitive tumors; format: cell-based; conditions: Mus musculus, Medulloblastoma cell
Protocol: (§1) The effect of mTor inhibitors (e.g., compounds such as Compound A) on the proliferation of medulloblastoma cells derived from sensitive and resistant medulloblastoma tumors was evaluated by using an “ex-vivo medulloblastoma proliferation assay. Sensitive tumors means tumors (e.g., medulloblastomas) which, due to hedgehog pathway activation, respond to treatment with a smoothened inhibitor anti-cancer regimen. Resistant tumors means formerly sensitive tumors (e.g., medulloblastomas) which, in the continuos presence of a smo inhibitor, either have regrown after shrinking due to treatment, or have reappeared after being temporarily eliminated due to treatment. Resistant tumors show a decreased sensitivity or no response to smoothened inhibition.
(§2) Using Ptch+/−Hic+/− medulloblastoma tumors freshly harvested from allografted nude mice, we have developed a short-term 48 h proliferation assay that enables us to assess the in vitro potency of Smo inhibitors. The read-out for proliferation uses incorporation of 3H thymidine. The assay reflects the in vivo sensitivity of tumor cells to Compound 1.
(§3) Table 1 summarizes the results of treating medulloblastoma cells in culture with Compound 1 (Smo inhibitor) and Compound A (mTor inhibitor), or combinations thereof. […] The potency of compound A in resistant tumors was increased in the presence of 5 and 20 uM of compound 1.

[3] = tested on: medulloblastoma cells derived from resistant Ptch+/−Hic+/− medulloblastoma tumors; assay: ex-vivo medulloblastoma proliferation assay (48 h, 3H thymidine incorporation), resistant tumors; format: cell-based, mouse; conditions: for IC50: Mus musculus, Medulloblastoma cell
Protocol: as §1, §2, §3

[4] = Tumor type Sensitive, single agent, 48 h, 3H thymidine, read-out: IC50, proliferation of medulloblastoma cells
[5] = Tumor type Resistant, single agent, 48 h, 3H thymidine, read-out: IC50, proliferation of medulloblastoma cells

Cc1c(C(=O)Nc2ccc(N3C[C@@H](C)O[C@@H](C)C3)nc2)cccc1-c1ccc(OC(F)(F)F)cc1 [Compound 1, 2-Methyl-4′-trifluoromethoxy-biphenyl-3-carboxylic acid [6-(cis-2,6-dimethyl-morpholin-4-yl)-pyridin-3-yl]-amide] was tested. Which “effect on tumor growth / tumor volume” value [1] did it give?
Its value is “initially induced regression but tumors started to regrow”.

What about the “time to endpoint (tumor volume>700 mm3), in words” value ([1]; 80 mg/kg qd Compound 1, or combination with 10 mg/kg qd Compound A, FIG. 2) of the same compound?
Its value is “significantly prolonged”.

What about the IC50 [2, 4] of the same compound?
Its IC50 is 8 nM.

What about the IC50 ([2]; sensitive cells, read-out: IC50, inhibition of sensitive cells) of the same compound?
Its IC50 is 8 nM.

What about the IC50 [3, 5] of the same compound?
Its IC50 is 9080 nM.

And the IC50 ([3]; resistant tumors, read-out: IC50 in resistant tumors)?
The IC50 was 9000 nM.

Which results are given for CO[C@H]1C[C@@H]2CC[C@@H](C)[C@@](O)(O2)C(=O)C(=O)N2CCCC[C@H]2C(=O)O[C@H]([C@H](C)C[C@@H]2CC[C@@H](OCCO)[C@H](OC)C2)CC(=O)[C@H](C)/C=C(\C)[C@@H](O)[C@@H](OC)C(=O)[C@H](C)C[C@H](C)/C=C/C=C/C=C/1C [Compound A, (1R,9S,12S,15R,16E,18R,19R,21R,23S,24E,26E,28E,30S,32S,35R)-1,18-dihydroxy-12-{(1R)-2-[(1S,3R,4R)-4-(2-hydroxyethoxy)-3-methoxycyclohexyl]-1-methylethyl}-19,30-dimethoxy-15,17,21,23,29,35-hexamethyl-11,36-dioxa-4-aza-tricyclol-[30.3.1.04.9]hexatriaconta-16,24,26,28-tetraene-2,3,10,14,20-pentaone]?
time to endpoint (tumor volume>700 mm3) ([1]; 10 mg/kg qd Compound A, FIG. 2): ~20 days; effect on tumor growth / tumor volume [1]: only a moderate effect on tumor growth compared to vehicle control; IC50 [2, 4]: 9 nM; IC50 [3, 5]: 2 nM; potency of compound A in resistant tumors ([3]; in the presence of 5 and 20 uM of compound 1): increased; inhibition of both sensitive and resistant tumors (comparison of IC50s) ([3]; resistant compared with sensitive tumors): inhibited both sensitive and resistant tumors with similar IC50s
